This is an account of results in publication PMC4393779 (Journal of neurochemistry, 2015).

One assay deals with DAT. The settings on record: intact cells; ref Chen et al., 2004b; cited from earlier work.
Assay [1] deals with T1, D436N hDAT (Homo sapiens, UniProt Q01959, D436N). As to the kind of experiment: [3H]CFT saturation binding, intact HEK-293 cells stably expressing D436N DAT. The settings on record: observed, mean ± SE.
Assay [2] deals with T2, W84L hDAT (Homo sapiens, UniProt Q01959, W84L).
T2 sequence (Q01959 1-620 W84L): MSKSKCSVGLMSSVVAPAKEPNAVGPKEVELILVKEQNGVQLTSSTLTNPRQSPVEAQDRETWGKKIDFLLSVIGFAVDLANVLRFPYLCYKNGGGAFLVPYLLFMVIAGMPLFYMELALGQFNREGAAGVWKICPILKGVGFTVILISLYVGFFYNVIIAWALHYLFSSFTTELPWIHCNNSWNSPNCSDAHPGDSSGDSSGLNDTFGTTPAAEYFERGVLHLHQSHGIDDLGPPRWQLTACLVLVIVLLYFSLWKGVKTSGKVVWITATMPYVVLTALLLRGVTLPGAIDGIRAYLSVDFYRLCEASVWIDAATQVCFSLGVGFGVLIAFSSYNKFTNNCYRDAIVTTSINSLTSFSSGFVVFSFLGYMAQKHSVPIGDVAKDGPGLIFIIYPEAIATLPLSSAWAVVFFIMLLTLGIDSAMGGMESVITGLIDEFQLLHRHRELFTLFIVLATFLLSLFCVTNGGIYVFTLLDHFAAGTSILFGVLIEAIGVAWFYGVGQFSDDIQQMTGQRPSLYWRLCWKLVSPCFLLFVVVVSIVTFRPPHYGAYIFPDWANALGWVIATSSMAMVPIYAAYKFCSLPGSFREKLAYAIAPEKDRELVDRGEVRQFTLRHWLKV
As to the kind of experiment: [3H]CFT saturation binding, HEK-293 cells transiently transfected with W84L DAT. The settings on record: transiently singly transfected.

In assay [3] the test system is WT + D345N hDAT (co-expressed). Format: binding, human. Conditions: transiently co-transfected 1:1, WT + D345N, observed.
Assay [4] concerns the target T3, WT hDAT (Homo sapiens, UniProt Q01959). As to the kind of experiment: [3H]CFT saturation binding, intact HEK-293 cells stably expressing WT DAT. Conditions: observed, mean ± SE.
Assay [5] relates to WT + D436N hDAT (mixed cells). Format: binding, human. The settings on record: observed upon mixing stable cells in equal volumes.
For assay [6], the target named is T2, W84L hDAT. The settings on record: stably expressing cells, observed, mean ± SE.
Assay [7] deals with T4, D345N hDAT (Homo sapiens, UniProt Q01959, D345N). As to the kind of experiment: [3H]CFT saturation binding, HEK-293 cells transiently transfected with D345N DAT. Conditions: transiently singly transfected.
T4 sequence (Q01959 whole entry D345N): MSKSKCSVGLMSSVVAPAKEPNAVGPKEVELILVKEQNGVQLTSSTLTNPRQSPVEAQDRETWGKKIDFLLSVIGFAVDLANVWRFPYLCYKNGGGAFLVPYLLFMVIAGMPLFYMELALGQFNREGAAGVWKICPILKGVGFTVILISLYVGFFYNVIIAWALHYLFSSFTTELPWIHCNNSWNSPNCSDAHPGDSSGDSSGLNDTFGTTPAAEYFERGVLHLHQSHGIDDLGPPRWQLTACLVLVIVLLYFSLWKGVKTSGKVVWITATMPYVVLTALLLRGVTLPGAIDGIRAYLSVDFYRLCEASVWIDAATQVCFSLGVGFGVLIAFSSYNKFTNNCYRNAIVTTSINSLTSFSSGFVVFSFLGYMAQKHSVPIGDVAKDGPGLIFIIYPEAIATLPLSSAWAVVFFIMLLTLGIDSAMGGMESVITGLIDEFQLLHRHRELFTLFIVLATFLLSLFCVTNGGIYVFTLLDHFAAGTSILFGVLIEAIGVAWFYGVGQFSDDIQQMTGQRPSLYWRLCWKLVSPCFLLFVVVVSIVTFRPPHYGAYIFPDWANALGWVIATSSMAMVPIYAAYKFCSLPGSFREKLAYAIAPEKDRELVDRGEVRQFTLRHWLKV
In assay [8] the target is T1, D436N hDAT. Kind of assay: [3H]CFT saturation binding, HEK-293 cells transiently transfected with D436N DAT. The settings on record: transiently singly transfected.
Assay [9] relates to W84L + D345N hDAT (co-expressed). Format: binding, human. Conditions: transiently co-transfected 1:1, W84L + D345N, observed.
Assay [10] deals with WT + D313N hDAT (co-expressed). Type of assay: binding, human. The settings on record: transiently co-transfected 1:1, WT + D313N, observed.
Assay [11] concerns the target T3, WT hDAT. The settings on record: transiently singly transfected, observed, mean ± SE.
The next assay deals with D313N hDAT (Homo sapiens, UniProt Q01959, D313N). As to the kind of experiment: [3H]CFT saturation binding, HEK-293 cells transiently transfected with D313N DAT. The settings on record: transiently singly transfected.
Chain of D313N hDAT (Q01959 whole entry D313N): as the sequence (Q01959 whole entry D345N) above, with D313N, N345D counted along it
The subject of assay [12] is W84L + D345N hDAT (mixed cells). Type of assay: binding, human. Conditions: observed upon mixing stable cells in equal volumes.
In assay [13] the target is T4, D345N hDAT. Kind of assay: [3H]CFT saturation binding, intact HEK-293 cells stably expressing D345N DAT. The settings on record: observed, mean ± SE.
Assay [14] relates to WT + D436N hDAT (co-expressed). Type of assay: binding, human. Conditions: transiently co-transfected 1:1, WT + D436N, observed.
Assay [15] has as its system WT + W84L hDAT (co-expressed). Type of assay: binding, human. The settings on record: transiently co-transfected 1:1, WT + W84L, observed.
Assay [16] relates to WT + W84L hDAT (mixed cells). Kind of assay: [3H]CFT saturation binding, mixed cells singly stably expressing WT and W84L DAT. Details: species or system human. Conditions: observed upon mixing stable cells in equal volumes.

Read-outs that look alike come from different tables or passages of the source.

T1 sequence (Q01959 whole entry D436N): as the sequence (Q01959 whole entry D345N) above, with N345D, D436N counted along it
T3 sequence (Q01959 whole entry): as the sequence (Q01959 whole entry D345N) above, with N345D counted along it

For the molecule `C[n+]1ccc(-c2ccccc2)cc1` [MPP^+], the “inhibition of intact cell [3H]CFT binding” value in the assay on DAT is given as “completely inhibited”.
Turning to `COC(=O)[C@H]1[C@@H](c2ccc(F)cc2)C[C@@H]2CC[C@H]1N2C` [[^3H]CFT, (−)-2-β-carbomethoxy-3-β-(4-fluorophenyl)tropane], the Bmax at D436N hDAT [1] is listed as 0.50± 0.08 (4) pmol/mg; at W84L hDAT [2] (set paired with D345N (n=7)), 0.94 ± 0.13 (7) pmol/mg; at W84L hDAT [2] (set paired with WT (n=5)) it was 0.82 ± 0.14 (5) pmol/mg; on WT hDAT [4], 0.55 ± 0.03 (6) pmol/mg; on W84L hDAT [6] it was 0.75 ± 0.16 (8) pmol/mg; on D345N hDAT [7] (set paired with W84L (n=6)) it was 0.51 ± 0.12 (6) pmol/mg. Moreover, the Bmax at D345N hDAT [7] (set paired with WT (n=4)) is given as 0.62 ± 0.10 (4) pmol/mg; on D436N hDAT [8] it was 0.94 ± 0.04 (3) pmol/mg; on WT hDAT [11], 0.79 ± 0.21 (4) pmol/mg; at D313N hDAT, 0.41± 0.03 (4) pmol/mg; on D345N hDAT [13], 0.57 ± 0.13 (4) pmol/mg. Moreover, the dissociation constant Kd (usually the concentration at which binding is half-saturated) in assay [3] came to 48.2 ± 10.3 nM; in assay [5] it was 25.9 ± 4 nM; in [9], 6.75 ± 3.22 nM; in assay [10], 6.42 ± 1.1 nM; in [12], 2.01 ± 0.67 nM; in assay [14], 103 ± 5 nM. For the same molecule, the Kd stood at 4.4 ± 0.77 nM in assay [15] and 5.33 ± 0.95 nM in [16].
